We go through 12 compounds from patent US20220324835A1 (Nurix Therapeutics, Inc., priority 2018, published 2022).

For experiment [1], the system named is T-cell. Description: CD25 cell surface staining on T-cells stimulated with anti-CD3 antibody alone (Biological Example 2). In kind it is cell-based, human. The following applies: T-cell, fold change over baseline, primary human total T-cells, read-out: CD25 staining Anti-CD3 stimulation; for fold induction at 1 µM: 1 μM Cbl-b inhibitor; for fold induction at 8 µM: 8 μM Cbl-b inhibitor. The source says: (§1) Methods for experimentally determining increased T-cell activation, increased T-cell proliferation, decreased T-cell exhaustion, and/or decreased T-cell tolerance are well known in the art.
(§2) Modulation of activity of an immune cell, such as a T-cell, a B cell or a NK cell can be measured by determining a baseline value for a parameter of interest (e.g., cytokine secretion). […] A reference value then is obtained for T-cell activation after contacting or administering said Cbl-b inhibitor. The reference value is compared to the baseline value in order to determine the amount of T-cell activation due to contact or administration of the Cbl-b inhibitor or composition thereof. […] Immune cell activation can be assessed by measuring biological markers of activation such as increased cytokine secretion, increased cell surface expression of activation markers (e.g., cell surface markers), or increased phosphorylation of proteins in a downstream signaling pathway. The fold over baseline value that indicates immune cell activation can be determined for the parameter being tested and the conditions under which the immune cell were treated. For example, for measuring T-cell activation, a baseline value can be obtained from T-cells stimulated with anti-CD3 antibody in combination with anti-CD28 antibody, wherein the cells are not incubated with a Cbl-b inhibitor. […] A positive response for immune cell activation can then be determined by the obtained reference value.
(§3) In some embodiments, a baseline value can be obtained from T-cells stimulated with anti-CD3 antibody alone, wherein the cells are not incubated with a Cbl-b inhibitor. In some embodiments, a positive response for T-cell activation as measured by cytokine secretion (e.g., IL-2 secretion) by T-cells stimulated with anti-CD3 antibody alone in the presence of a Cbl-b inhibitor is at least 0.1-fold over the baseline value for cytokine secretion (e.g., IL-2 secretion) obtained from T-cells stimulated with anti-CD3 antibody alone in the absence of a Cbl-b inhibitor. In some embodiments, a positive response for T-cell activation as measured by surface marker expression (e.g., CD25 surface marker staining) by T-cells stimulated with anti-CD3 antibody alone in the presence of a Cbl-b inhibitor is at least 0.6-fold over the baseline value for surface marker expression (e.g., CD25 surface marker staining) obtained from T-cells stimulated with anti-CD3 antibody alone in the absence of a Cbl-b inhibitor.

Experiment [2] has as its system T-cell. Description: CD25 cell surface staining on T-cells co-stimulated with anti-CD3 and anti-CD28 antibody (Biological Example 2). It counts as cell-based, human. The settings on record: Homo sapiens, T-cell, fold change over baseline, primary human total T-cells, read-out: CD25 staining Anti-CD3/Anti-CD28 stimulation; for fold induction at 0.3 µM: 0.3 μM Cbl-b inhibitor; for fold induction at 1 µM: 1 μM Cbl-b inhibitor; for fold induction at 4 µM: 4 μM Cbl-b inhibitor.
Description: as §1
as §2, with “value. […]” for “value.”

The test system of experiment [3] is T-cell. Description: IL-2 secretion from T-cells co-stimulated with anti-CD3 and anti-CD28 antibody (Biological Example 2). In kind it is cell-based, human. The following applies: Homo sapiens, T-cell, fold change over baseline, primary human total T-cells, read-out: IL-2 secretion Anti-CD3/Anti-CD28 stimulation; for fold induction at 0.3 µM: 0.3 μM Cbl-b inhibitor; for fold induction at 1 µM: 1 μM Cbl-b inhibitor; for fold induction at 4 µM: 4 μM Cbl-b inhibitor.
Description: as §1
as §2, with “value. […]” for “value.”

Experiment [4] deals with T-cell. The experiment can be described thus: IL-2 secretion from T-cells stimulated with anti-CD3 antibody alone (Biological Example 2). In kind it is cell-based, human. The following applies: T-cell, fold change over baseline, primary human total T-cells, read-out: IL-2 secretion Anti-CD3 stimulation; for fold induction at 1 µM: 1 μM Cbl-b inhibitor; for fold induction at 8 µM: 8 μM Cbl-b inhibitor.
Description: as §1, §2, §3

Experiment [5] deals with T1, Cbl-b (Homo sapiens, UniProt Q13191). Description: Cbl-b activity assay (Cbl-b inhibition assay), TR-FRET of Cbl-b interaction with UbcH5B-Ub. It counts as biochemical. The following applies: assay buffer with 100 mM NaCl, 60 nM Src kinase; read-out: Cbl-b activity IC50. Summed up: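 UbcH5B (C85K) conjugated to N-terminally Bodipy-Fluorescein-labeled ubiquitin served as the fluorescent partner. After compound preincubation, Src kinase (60 nM) with 1 mM ATP and 5 mM MgCl2 (final) was added for 1.5 h, followed by a further 1 h incubation. Some values were obtained with 50 mM NaCl and 30 nM Src.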
T1 sequence (Q13191 36-427): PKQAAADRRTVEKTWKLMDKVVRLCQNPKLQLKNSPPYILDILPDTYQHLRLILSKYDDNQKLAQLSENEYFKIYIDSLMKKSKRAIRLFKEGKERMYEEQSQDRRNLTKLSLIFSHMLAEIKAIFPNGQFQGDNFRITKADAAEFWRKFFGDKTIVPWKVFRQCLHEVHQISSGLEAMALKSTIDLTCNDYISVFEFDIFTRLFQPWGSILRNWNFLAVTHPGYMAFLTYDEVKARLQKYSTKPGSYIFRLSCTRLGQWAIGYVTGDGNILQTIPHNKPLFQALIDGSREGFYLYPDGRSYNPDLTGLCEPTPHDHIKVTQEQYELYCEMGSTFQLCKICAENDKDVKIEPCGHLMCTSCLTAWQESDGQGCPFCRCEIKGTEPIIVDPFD
In general terms: In TR-FRET formats the signal depends on donor and acceptor labels being close together.

For experiment [6], the target named is T1, Cbl-b. Description: Cbl-b inhibition assay (Cbl-b activity assay, FRET, Biological Example 1; 100 mM NaCl, 60 nM Src kinase). In kind it is biochemical. The settings on record: upper bound stated in text lists; read-out: IC50 values in the Cbl-b inhibition assay of Biological Example 1. Summed up: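 Inhibitor activity is measured as reduced terbium-to-fluorescein FRET between streptavidin-terbium on biotinylated Cbl-b and Bodipy-fluorescein ubiquitin carried by an irreversible UbcH5B-Ub conjugate, binding of which depends on Src phosphorylation of Cbl-b.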

Each structure is given as a SMILES string.

For `C[C@H](Cc1nncn1C)c1cccc(NC(=O)c2cc(C(F)(F)F)n[nH]2)c1` [Compound 314, (R)-N-(3-(1-(4-Methyl-4H-1,2,4-triazol-3-yl)propan-2-yl)phenyl)-3-(trifluoromethyl)-1H-pyrazole-5-carboxamide], in the experiment with T-cell [1], the fold induction at 1 µM fell in the range of 0.601 to 0.8 and the fold induction at 8 µM lay in the range of 0.601 to 0.8. In the experiment with T-cell [2], the fold induction at 0.3 µM fell in the range of 1.01 to 1.3, the fold induction at 1 µM was in the range of 1.01 to 1.3 and the fold induction at 4 µM lay in the range of 1.01 to 1.3. Further, in the experiment on T-cell [3], the fold induction at 0.3 µM was 1.01 to 2.5, the fold induction at 1 µM fell in the range of 1.01 to 2.5 and the fold induction at 4 µM lay within 1.01 to 2.5. Also, in the experiment on T-cell [4], the fold induction at 1 µM is 0.051 to 0.1 and the fold induction at 8 µM lay in the range of 0.101 to 0.15. In addition, the IC50 on Cbl-b [5] lay in the range of 0.301 to 1 µM.
`C[C@H](Cc1nncn1C)c1cccc(NC(=O)c2coc(C(F)(F)F)n2)c1` [Compound 315, (R)-N-(3-(1-(4-Methyl-4H-1,2,4-triazol-3-yl)propan-2-yl)phenyl)-2-(trifluoromethyl)oxazole-4-carboxamide]: in the experiment on T-cell [1], the fold induction at 1 µM is 0.601 to 0.8 and the fold induction at 8 µM is 0.801 to 1. Also, in the experiment on T-cell [2], the fold induction at 0.3 µM was in the range of 1.01 to 1.3, the fold induction at 1 µM was 1.01 to 1.3 and the fold induction at 4 µM was 1.01 to 1.3. Also, in the experiment on T-cell [3], the fold induction at 0.3 µM is less than 1, the fold induction at 1 µM is 1.01 to 2.5 and the fold induction at 4 µM lay in the range of 1.01 to 2.5. In the experiment with T-cell [4], the fold induction at 1 µM lay within 0.051 to 0.1 and the fold induction at 8 µM lay within 0.101 to 0.15. At Cbl-b [5], the half-maximal inhibitory concentration (IC50) lay in the range of 0.301 to 1 µM.
On to `C[C@H](Cc1nncn1C)c1cccc(NC(=O)c2ccn3nccc3n2)c1` [Compound 316, (R)-N-(3-(1-(4-Methyl-4H-1,2,4-triazol-3-yl)propan-2-yl)phenyl)pyrazolo[1,5-a]pyrimidine-5-carboxamide], for which the fold induction at 1 µM with T-cell [1] lay within 0.601 to 0.8; in the experiment on T-cell [2] it was 1.01 to 1.3; with T-cell [3] it was 1.01 to 2.5; with T-cell [4], 0.051 to 0.1. Moreover, the fold induction at 8 µM in the experiment on T-cell [1] is more than 1; in the experiment on T-cell [4], 0.151 to 0.2. The fold induction at 0.3 µM in the experiment on T-cell [2] was in the range of 1.01 to 1.3; with T-cell [3] it was 1.01 to 2.5. Besides, the fold induction at 4 µM is 1.01 to 1.3 with T-cell [2] and 2.51 to 5 with T-cell [3]. The half-inhibitory concentration (IC50) at Cbl-b [5] was in the range of 0.301 to 1 µM.
Consider `Cn1cnnc1CC1(c2cccc(N3Cc4c(cc(CN5CCO[C@H](CO)C5)cc4C(F)(F)F)C3=O)c2)COC1` [Example 710, (S)-6-((2-(hydroxymethyl)morpholino)methyl)-2-(3-(3-((4-methyl-4H-1,2,4-triazol-3-yl)methyl)oxetan-3-yl)phenyl)-4-(trifluoromethyl)isoindolin-1-one], for which the half-inhibitory concentration (IC50) at Cbl-b [6] is not above 0.1 µM; at Cbl-b [5], less than 0.1 µM.
Taken in the same sequence, the figures for `Cn1cnnc1CC1(c2cccc(N3Cc4c(cc(CN5CCN6C(=O)CCC6C5)cc4C(F)(F)F)C3=O)c2)COC1` (stereo not drawn) [Example 711, 2-((2-(3-(3-((4-methyl-4H-1,2,4-triazol-3-yl)methyl)oxetan-3-yl)phenyl)-3-oxo-7-(trifluoromethyl)isoindolin-5-yl)methyl)hexahydropyrrolo[1,2-a]pyrazin-6(2H)-one] were not above 0.1 µM and less than 0.1 µM.
Turning to `Cn1cnnc1CC1(c2cccc(N3Cc4c(cc(CN5CCOC6(CCOC6)C5)cc4C(F)(F)F)C3=O)c2)COC1` (stereo not drawn) [Example 712, 6-((2,6-dioxa-9-azaspiro[4.5]decan-9-yl)methyl)-2-(3-(3-((4-methyl-4H-1,2,4-triazol-3-yl)methyl)oxetan-3-yl)phenyl)-4-(trifluoromethyl)isoindolin-1-one], the IC50 was not above 0.1 µM on Cbl-b [6] and less than 0.1 µM at Cbl-b [5].
On to `Cn1cnnc1CC1(c2cccc(N3Cc4c(cc(CN5CCOC(CF)C5)cc4C(F)(F)F)C3=O)c2)COC1` (stereo not drawn) [Example 714, 6-((2-(fluoromethyl)morpholino)methyl)-2-(3-(3-((4-methyl-4H-1,2,4-triazol-3-yl)methyl)oxetan-3-yl)phenyl)-4-(trifluoromethyl)isoindolin-1-one], for which the IC50 is not above 0.1 µM at Cbl-b [6] and less than 0.1 µM on Cbl-b [5].
On the same counts, the results for `Cn1cnnc1CC1(c2cccc(N3Cc4c(cc(CN5CCOC(CC(F)(F)F)C5)cc4C(F)(F)F)C3=O)c2)COC1` (stereo not drawn) [Example 715, 2-(3-(3-((4-methyl-4H-1,2,4-triazol-3-yl)methyl)oxetan-3-yl)phenyl)-6-((2-(2,2,2-trifluoroethyl)morpholino)methyl)-4-(trifluoromethyl)isoindolin-1-one] are not above 0.1 µM and less than 0.1 µM.
Taken in the same sequence, the figures for `CC(C)C1CN(Cc2cc3c(c(C(F)(F)F)c2)CN(c2cccc(C4(Cc5nncn5C)COC4)c2)C3=O)CCO1` (stereo not drawn) [Example 716, 6-[(2-isopropylmorpholin-4-yl)methyl]-2-(3-{3-[(4-methyl-1,2,4-triazol-3-yl)methyl]oxetan-3-yl}phenyl)-4-(trifluoromethyl)-3H-isoindol-1-one] were not above 0.1 µM and less than 0.1 µM.
On the same counts, the results for `Cn1cnnc1CC1(c2cccc(N3Cc4c(cc(CN5CCOC(CCO)C5)cc4C(F)(F)F)C3=O)c2)COC1` (stereo not drawn) [Example 717, 6-{[2-(2-hydroxyethyl)morpholin-4-yl]methyl}-2-(3-{3-[(4-methyl-1,2,4-triazol-3-yl)methyl]oxetan-3-yl}phenyl)-4-(trifluoromethyl)-3H-isoindol-1-one] are not above 0.1 µM and less than 0.1 µM.
On to `Cn1cnnc1CC1(c2cccc(N3Cc4c(cc(CN5CCOC(C6CC6)C5)cc4C(F)(F)F)C3=O)c2)COC1` (stereo not drawn) [Example 718, 6-[(2-cyclopropylmorpholin-4-yl)methyl]-2-(3-{3-[(4-methyl-1,2,4-triazol-3-yl)methyl]oxetan-3-yl}phenyl)-4-(trifluoromethyl)-3H-isoindol-1-one], for which the half-inhibitory concentration (IC50) is not above 0.1 µM at Cbl-b [6] and less than 0.1 µM at Cbl-b [5].
For the compound `Cn1cnnc1CC1(c2cccc(N3Cc4c(cc(CN5CCOC(C6CCC6)C5)cc4C(F)(F)F)C3=O)c2)COC1` (stereo not drawn) [Example 719, 6-[(2-cyclobutylmorpholin-4-yl)methyl]-2-(3-{3-[(4-methyl-1,2,4-triazol-3-yl)methyl]oxetan-3-yl}phenyl)-4-(trifluoromethyl)-3H-isoindol-1-one], the values for the IC50 on Cbl-b [6] and at Cbl-b [5] were not above 0.1 µM and less than 0.1 µM, respectively.

In general, IC50 refers to the concentration that inhibits the measured activity by half.
